Measurements as given in US20160075653A1, “NEMATICIDAL N-(PHENYLCYCLOALKYL)CARBOXAMIDES AND N-(PHENYLCYCLOALKYL)THIOCARBOXAMIDES” (BAYER CROPSCIENCE AKTIENGESELLSCHAFT, priority 2013, published 2016).

Columns and labels:
[1] = Measurement of log P values by HPLC on reversed phase columns (methods [a] pH 2.3, [b] pH 2.7, [c] pH 7.8); assay type: physicochemical; conditions: HPLC reversed phase, method [b] (pH 2.7)
Method in brief: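 Retention times were converted to log P by linear interpolation between linear alkan-2-one standards (3 to 16 carbons) of known log P. Eluents, each with 10% to 95% acetonitrile gradient: phosphoric acid 0.1% at pH 2.3 [a]; formic acid 0.1% at pH 2.7, LC-MS [b]; ammonium hydrogen carbonate 0.001 molar at pH 7.8, LC-MS [c].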

Meloidogyne incognita = Meloidogyne incognita test (MELGIN), gall formation on salad seedlings; assay type: in vivo; conditions: application rate 20 ppm, after 14 days
Description: Meioidovnve incomita—Test (MELGIN)
Solvent: 125.0 parts by weight of acetone
To produce a suitable preparation of active compound, 1 part by weight of active compound is mixed with the stated amount of solvent, and the concentrate is diluted with water to the desired concentration.
Vessels are filled with sand, a solution of the active ingredient, a suspension containing eggs and larvae of the southern root-knot nematode (Meloidogyne incognita) and salad seeds. The salad seeds germinate and the seedlings grow. Galls develop in the roots.
After 14 days the nematicidal activity is determined on the basis of the percentage of gall formation. 100% means that no galls were found; 0% means the number of galls found on the roots of the treated plants was equal to that in untreated control plants.

| SMILES | logP [1] | nematicidal activity (percentage of gall formation; 100% = no galls) (Meloidogyne incognita) |
| --- | --- | --- |
| O=C(N[C@@H]1CC[C@@H]1c1c(F)cccc1C(F)(F)F)c1ncc(C(F)(F)F)cc1Cl (relative stereo) [Compound 543] | 4.13^[b] | 90% |
| O=C(N[C@@H]1CC[C@H]1c1ccccc1Cl)c1sccc1I (relative stereo) [Compound 544] | 3.86^[b] | 90% |
| Cc1nc(C(F)(F)F)c(C(=O)N[C@@H]2CC[C@@H]2c2ccccc2Cl)s1 (relative stereo) [Compound 545] | 3.15^[b] | 100% |
| O=C(N[C@@H]1CC[C@H]1c1ccccc1Cl)c1nccnc1Cl (relative stereo) [Compound 548] | 2.81^[b] | 100% |
| O=C(N[C@@H]1CC[C@@H]1c1cc(F)ccc1C(F)(F)F)c1c(F)cccc1F (relative stereo) [Compound 549] | 3.22^[b] | 100% |
| O=C(N[C@@H]1CC[C@@H]1c1cc(F)ccc1C(F)(F)F)c1ccccc1 (relative stereo) [Compound 550] | 3.15^[b] | 100% |
| O=C(N[C@@H]1CC[C@@H]1c1c(F)cccc1C(F)(F)F)c1ccccc1 (relative stereo) [Compound 551] | 3.23^[b] | 100% |
| O=C(N[C@@H]1CC[C@@H]1c1c(F)cccc1C(F)(F)F)c1ccccc1Cl (relative stereo) [Compound 553] | 3.42^[b] | 100% |
| O=C(N[C@@H]1CC[C@@H]1c1ccccc1Cl)c1cccnc1 (relative stereo) [Compound 555] | 1.18^[b] | 90% |
| Cn1cc(C(=O)N[C@@H]2CC[C@@H]2c2cc(F)ccc2C(F)(F)F)c(C(F)F)n1 (relative stereo) [Compound 556] | 2.85^[b] | 90% |
| O=C(N[C@@H]1C[C@@H]1c1ccc(Cl)cc1Cl)c1ccccc1[N+](=O)[O-] (relative stereo) [Compound 558] | 2.94^[b] | 100% |
| O=C(N[C@@H]1CC[C@@H]1c1cc(F)ccc1C(F)(F)F)c1nccnc1Cl (relative stereo) [Compound 559] | 2.88^[b] | 100% |
| O=C(N[C@@H]1CC[C@@H]1c1cc(F)ccc1C(F)(F)F)c1ccccc1Br (relative stereo) [Compound 560] | 3.38^[b] | 100% |
| O=C(N[C@@H]1CC[C@@H]1c1c(F)cccc1C(F)(F)F)c1ccccc1[N+](=O)[O-] (relative stereo) [Compound 561] | 3.03^[b] | 100% |
| O=C(N[C@@H]1CC[C@@H]1c1c(F)cccc1C(F)(F)F)c1ccccc1Br (relative stereo) [Compound 563] | 3.46^[b] | 100% |
| O=C(N[C@@H]1CC[C@@H]1c1c(F)cccc1C(F)(F)F)c1c(F)cccc1F (relative stereo) [Compound 564] | 3.25^[b] | 100% |
| O=C(N[C@@H]1C[C@@H]1c1ccc(Cl)cc1Cl)c1nccnc1C(F)(F)F (relative stereo) [Compound 566] | 3.11^[b] | 90% |
| O=C(N[C@@H]1C[C@@H]1c1ccc(Cl)cc1Cl)c1nccnc1Cl (relative stereo) [Compound 567] | 2.75^[b] | 90% |
| O=C(N[C@@H]1CC[C@@H]1c1cc(F)ccc1C(F)(F)F)c1sccc1I (relative stereo) [Compound 570] | 3.79^[b] | 100% |
| O=C(N[C@@H]1CC[C@@H]1c1cc(F)ccc1C(F)(F)F)c1cccnc1Cl (relative stereo) [Compound 571] | 2.75^[b] | 100% |
| O=C(N[C@@H]1CC[C@@H]1c1cc(F)ccc1C(F)(F)F)c1cccnc1C(F)(F)F (relative stereo) [Compound 572] | 3.06^[b] | 100% |
